Results taken from patent publication US3962443A, “Antibacterial pharmaceutical compositions and processes for preparation thereof” (Dainippon Pharmaceutical Co., Ltd., priority 1972, dated 1976).
≈ marks a conversion by molar mass, not a printed value. Read-outs that look alike come from different tables or passages of the source.

Legend:
[1] = tested on: Escherichia coli K-12; assay: In vitro antibacterial activity, MIC by serial dilution; assay type: cell-based
Experimental: (§1) The minimum inhibitory concentration (MIC) was determined by the well
(§2) known serial dilution method.
(§3) Experimental conditions:?
(§4) Medium: nutrient broth, pH 7.0 (5 ml/tube)
(§5) Inoculum: 1 drop of 1 : 10^5 dilution of an overnight broth culture
(§6) Incubation temperature and time: 37°C for 48 hours

[2] = tested on: Pseudomonas aeruginosa Tsuchijima; assay: as above; assay type: cell-based; conditions: nutrient broth pH 7.0, 37°C, 48 hours
Experimental: as §1, §2, §3, §4, §5, §6

[3] = tested on: Staphylococcus aureus Terajima; assay: as above; assay type: cell-based; conditions: nutrient broth pH 7.0, 37°C, 48 hours
Experimental: as §1, §2, §3, §4, §5, §6

[4] = tested on: Pseudomonas aeruginosa No. 12; assay: In vivo efficacy against systemic infection with Pseudomonas aeruginosa in mice; parameters: species or system mice (ddY-S); conditions: for ED50: twice, about 5 minutes and 6 hours after infection
Experimental: (§7) In the Tables II to IV, the ED50 and ID50 values were calculated in accordance with the Behrens-Kaerber method [Arch. Exp. Path. Pharm., 162, 480 (1931)]. The compound numbers are those described in the Examples and compounds PA and AT-616 are as follows:
(§8) total number. 0/8 means that all of 8 mice died. 8/8 means that all 8 mic
(§9) Mice: male mice (ddY-S) weighing 20 g approximately

[5] = tested on: Salmonella typhimurium S-9; assay: In vivo efficacy against systemic infection with Salmonella typhimurium in mice; parameters: species or system mice (ddY-S); conditions: for ED50: Salmonella enterica, TYPHIMURIUM, 336 h, twice a day for 4 days, 14 days observation; for number of the survived/the total number: 14 days
Experimental: as §7
The numerical figures in the table show the number of the survived/the
as §8
Experimental conditions.
Organism: Salmonella typhimurium S-9
as §9
Infection: Intraperitoneal infection with 50 to 100 LD50 of a
bacterial suspension in nutrient broth (about 10^5 cells/mouse)
Medication: twice a day for 4 days from the day of infection.
Drug: an alkaline solution for parenteral administration and suspension i
0.2% CMC for oral administration
i.e.: intraperitoneal administration
p.o.: oral administration

[6] = tested on: Mycobacterium tuberculosis H37 Rv; assay: Antituberculous activity in vitro, MIC by serial dilution; assay type: cell-based; conditions: H37RV, 504 h, Kirchner medium with 0.2% bovine albumin, pH 7.0, 37°C, 3 weeks
Experimental: (§10) The minimum inhibitory concentration (MIC:μg/ml) was determined by the
(§11) well known serial dilution method.
as §3
(§12) Medium: Kirchner medium containing 0.2% bovine albumin, pH 7.0 (3 ml/tube
(§13) Inoculum: 1 drop of 1:10^2 dilution of a culture in Modified Kirchner
(§14) medium for 2 weeks (OD=0.3) per tube
(§15) Incubation temp. and time: 37°C for 3 weeks

[7] = tested on: Mycobacterium tuberculosis Kurono; assay: as above; assay type: cell-based; conditions: 504 h, Kirchner medium with 0.2% bovine albumin, pH 7.0, 37°C, 3 weeks
Experimental: as §10, §11, §3, §12, §13, §14, §15

[8] = K12, Escherichia coli K-12, nutrient broth pH 7.0, 37°C, 48 hours, read-out: MIC
[9] = NO.12, 168 h, ip, 7 days, read-out: number of the survival/the total number (converted)
[10] = NO.12, 168 h, ip, 50 mg/kg, 7 days, read-out: number of the survival/the total number (converted)
[11] = NO.12, 168 h, ip, 100 mg/kg, 7 days, read-out: number of the survival/the total number (converted)
[12] = NO.12, 168 h, po, 7 days, read-out: number of the survival/the total number (converted)
[13] = Escherichia coli, K12, 48 h, pH 7

SMILES	MIC [1, 8]	MIC [2]	MIC [3]	ED50 ([4]; NO.12, 168 h, ip, 7 days)	ED50 ([5]; po)	number of the survived/the total number ([5]; po, 25 mg/kg)	number of the survived/the total number ([5]; po, 50 mg/kg)	responders at 200 mg/kg [4, 12]	ED50 ([4]; NO.12, 168 h, po, 7 days)	ED50 ([5]; ip)	further results
C=CCn1cc(C(=O)O)c(=O)c2cnc(N3CCNCC3)nc21 [Compound 50]	10 µg/mL (≈ 31.7 µM)	30 µg/mL (≈ 95.1 µM)	100 µg/mL (≈ 317 µM)	35 mg/kg							responders at 25 mg/kg [4, 9]: 12.5%; responders at 50 mg/kg [4, 10]: 87.5%; responders at 100 mg/kg [4, 11]: 100%
C#CCN1CCN(c2ncc3c(=O)c(C(=O)O)cn(CC)c3n2)CC1 [Compound 38]	3 µg/mL (≈ 8.79 µM)	> 100 µg/mL	10 µg/mL (≈ 29.3 µM)		21 mg/kg	6/8	8/8				number of the survived/the total number ([5]; po, 12.5 mg/kg): 0/8
CCn1cc(C(=O)O)c(=O)c2cnc(N3CCNCC3)nc21.Cl [Compound 11, 5,8-Dihydro-8-ethyl-2-(1-piperazinyl)-5-oxopyrido[2,3-d]pyrimidine-6-carboxylic acid hydrochloride]	3 µg/mL	10 µg/mL	30 µg/mL	< 17.7 mg/kg	< 35.4 mg/kg		8/8	100%	< 100 mg/kg		responders at 25 mg/kg [4, 9]: 100%; responders at 100 mg/kg ([4]; NO.12, 168 h, po, 100 mg/kg, 7 days, read-out: number of the survival/the total number (converted)): 87.5%
C=Cn1cc(C(=O)O)c(=O)c2cnc(N3CCNCC3)nc21.Cl [Compound 54, 5,8-Dihydro-2-(1-piperazinyl)-8-vinyl-5-oxopyrido[2,3-d] pyrimidine-6-carboxylic acid hydrochloride]	3 µg/mL	3 µg/mL	> 100 µg/mL		17.7 mg/kg	6/8	8/8				number of the survived/the total number ([5]; po, 12.5 mg/kg): 2/8
Cl.O=C(O)c1cn(CCCl)c2nc(N3CCNCC3)ncc2c1=O [Compound 63, 8-(2-chloroethyl)-5,8-dihydro-2-(1-piperazinyl)-5-oxopyrido[2,3-d]pyrimidine-6-carboxylic acid hydrochloride]	3 µg/mL	30 µg/mL	30 µg/mL	< 17.7 mg/kg							responders at 25 mg/kg [4, 9]: 100%; responders at 50 mg/kg [4, 10]: 100%
CCn1cc(C(=O)O)c(=O)c2cnc(N3CCNCC3)nc21 [Compound 1, 5,8-Dihydro-8-ethyl-2-(1-piperazinyl)-5-oxopyrido[2,3-d]pyrimidine-6-carboxylic acid]		10 µg/mL (≈ 33 µM)	30 µg/mL (≈ 98.9 µM)	10.5 mg/kg	12.5 mg/kg	8/8	8/8		100 mg/kg	6.3 mg/kg	MIC [1, 13]: 1 µg/mL (≈ 3.3 µM); responders at 3.1 mg/kg ([4]; NO.12, ip, 168 h, read-out: number of the survival/the total number, ip, 3.1 mg/kg, 7 days): 12.5%; responders at 6.3 mg/kg ([4]; NO.12, ip, 168 h, read-out: number of the survival/the total number, ip, 6.3 mg/kg, 7 days): 25%; responders at 12.5 mg/kg ([4]; NO.12, ip, 168 h, read-out: number of the survival/the total number, ip, 12.5 mg/kg, 7 days): 50%; responders at 50 mg/kg ([4]; NO.12, ip, 168 h, read-out: number of the survival/the total number, ip, 50 mg/kg, 7 days): 100%; responders at 50 mg/kg ([4]; NO.12, po, 168 h, read-out: number of the survival/the total number, po, 50 mg/kg, 7 days): 0%; responders at 100 mg/kg ([4]; NO.12, po, 168 h, read-out: number of the survival/the total number, po, 100 mg/kg, 7 days): 50%; number of the survived/the total number ([5]; ip, 6.3 mg/kg): 4/8; number of the survived/the total number ([5]; ip, 12.5 mg/kg): 8/8; number of the survived/the total number ([5]; ip, 25 mg/kg): 8/8; number of the survived/the total number ([5]; po, 6.3 mg/kg): 0/8; number of the survived/the total number ([5]; po, 12.5 mg/kg): 4/8
CCN1CCN(c2ncc3c(=O)c(C(=O)O)cn(CC)c3n2)CC1 [Compound 21, 2-(4-ethyl-1-piperazinyl)-5,8-dihydro-8-ethyl-5-oxopyrido[2,3-d]pyrimidine-6-carboxylic acid]	1 µg/mL (≈ 3.02 µM)	100 µg/mL (≈ 302 µM)	30 µg/mL (≈ 90.5 µM)	~100 mg/kg	< 17.7 mg/kg	8/8		50%	~200 mg/kg	< 17.7 mg/kg	responders at 50 mg/kg [4, 10]: 0%; responders at 100 mg/kg [4, 11]: 50%; number of the survived/the total number ([5]; ip, 25 mg/kg): 8/8
CCn1cc(C(=O)O)c(=O)c2cnc(N3CCN(CC(C)O)CC3)nc21 (stereo not drawn) [Compound 4, 5,8-Dihydro-8-ethyl-2-[4-(2-hydroxy-n-propyl)-1-piperazinyl]-5-oxopyrido[2,3-d]pyrimidine-6-carboxylic acid]	3 µg/mL (≈ 8.3 µM)	100 µg/mL (≈ 277 µM)	30 µg/mL (≈ 83 µM)		< 35.4 mg/kg		8/8			< 35.4 mg/kg	number of the survived/the total number ([5]; ip, 50 mg/kg): 8/8
O=C(O)c1cn(Cc2ccccc2)c2nc(N3CCNCC3)ncc2c1=O [Compound 33, 8-Benzyl-5,8-dihydro-2-(1-piperazinyl)-5-oxopyrido [2,3-d]pyrimidine-6-carboxylic acid]	3 µg/mL (≈ 8.21 µM)	10 µg/mL (≈ 27.4 µM)	100 µg/mL (≈ 274 µM)	< 17.7 mg/kg						12.5 mg/kg	responders at 25 mg/kg [4, 9]: 100%; number of the survived/the total number ([5]; ip, 6.3 mg/kg): 1/8; number of the survived/the total number ([5]; ip, 12.5 mg/kg): 4/8; number of the survived/the total number ([5]; ip, 25 mg/kg): 7/8
CCn1cc(C(=O)O)c(=O)c2cnc(N3CCCC3)nc21 [Compound PA, reference compound]	1 µg/mL (≈ 3.47 µM)	100 µg/mL (≈ 347 µM)	10 µg/mL (≈ 34.7 µM)	> 100 mg/kg	46.7 mg/kg	3/10	4/10	0%	> 200 mg/kg	43.5 mg/kg	responders at 100 mg/kg [4, 11]: 0%; number of the survived/the total number ([5]; ip, 12.5 mg/kg): 0/10; number of the survived/the total number ([5]; ip, 25 mg/kg): 3/10; number of the survived/the total number ([5]; ip, 50 mg/kg): 5/10; number of the survived/the total number ([5]; ip, 100 mg/kg): 9/10; number of the survived/the total number ([5]; po, 12.5 mg/kg): 0/10; number of the survived/the total number ([5]; po, 100 mg/kg): 10/10; MIC [6]: 100 µg/mL (≈ 347 µM); MIC [7]: 100 µg/mL (≈ 347 µM)
CCn1cc(C(=O)O)c(=O)c2cnc(N3CCN(c4ccccc4)CC3)nc21 [Compound 6, 5,8-Dihydro-8-ethyl-2-(4-phenyl-1-piperazinyl)-5-oxoprido[2,3-d]pyrimidine-6-carboxylic acid]											MIC [6]: 6.3 µg/mL (≈ 16.6 µM); MIC [7]: 6.3 µg/mL (≈ 16.6 µM)
CCn1cc(C(=O)O)c(=O)c2cnc(N3CCN(Cc4ccc(OC)cc4)CC3)nc21 [Compound 17]	3 µg/mL (≈ 7.08 µM)	100 µg/mL (≈ 236 µM)	10 µg/mL (≈ 23.6 µM)								
CCCn1cc(C(=O)O)c(=O)c2cnc(N3CCNCC3)nc21 [Compound 2, 5,8-Dihydro-2-(1-piperazinyl)-8-n-propyl-5-oxopyrido[2,3-d]pyrimidine-6-carboxylic acid]		30 µg/mL (≈ 94.5 µM)	100 µg/mL (≈ 315 µM)	35.4 mg/kg				62.5%	< 200 mg/kg		MIC [1, 13]: 3 µg/mL (≈ 9.45 µM); responders at 50 mg/kg [4, 10]: 100%
CCn1cc(C(=O)O)c(=O)c2cnc(N3CCC(O)C3)nc21 (stereo not drawn) [Compound AT-616, reference compound]	1 µg/mL (≈ 3.29 µM)	100 µg/mL (≈ 329 µM)	30 µg/mL (≈ 98.6 µM)	> 100 mg/kg				12.5%	> 200 mg/kg		responders at 100 mg/kg [4, 11]: 37.5%
